Consider two molecules from article PMC9964244, “Effects of Dimerization, Dendrimerization, and Chirality in p-BthTX-I Peptide Analogs on the Antibacterial Activity and Enzymatic Inhibition of the SARS-CoV-2 PL^pro Protein” (Pharmaceutics, 2023).

One data set deals with A. baumannii ATCC 19606. Briefly: MIC/MBC, broth microdilution and subculture on CA-MH agar. As to conditions: triplicate, mode; for MIC: broth microdilution; for MBC: subculture on CA-MH agar, 37 °C, 24 h. The data set is classed as cell-based, Acinetobacter baumannii. As to the method: (§1) Bacterial isolates from the American Type Culture Collection (ATCC) were obtained from the Collection of Reference Bacteria on Health Surveillance, Oswaldo Cruz Foundation (FIOCRUZ) after phenotypic and molecular quality control and were registered at SISGEN under the number ADB556B. The minimum inhibitory concentration (MIC) was determined as previously described by Santos-Filho et al., 2021 [17], using the broth microdilution method. The MIC was the lowest concentration that inhibited microbial growth. […] MBC was defined as the lowest peptide concentration with no visible growth on the plate. […] The assay was performed in triplicate, and the values represent the mode of the obtained results.
(§2) Thus, to assess the relevance of the antimicrobial effect of p-Bth analogs, their Minimum Inhibitory Concentration (MIC) and Minimum Bactericidal Concentration (MBC) were analyzed against relevant bacteria. The evaluated strains were the Gram-positives: S. aureus ATCC 25923, S. epidermidis ATCC 35984, E. faecalis ATCC 29212, and E. faecium ATCC […] (Table 1); and the Gram-negatives: K. pneumoniae ATCC 700603, E. coli ATCC 25922, A. baumannii ATCC 19606, and P. aeruginosa ATCC 27853 (Table 2).
Background: Dilution methods test growth across graded concentrations, often in twofold steps.

The next data set deals with E. faecium ATCC 700221. The description is as above. The data set is classed as cell-based, Enterococcus faecium. Also on record: key to Act (antibacterial activity): Bc, bactericidal; Bs, bacteriostatic. As to conditions: for MIC: broth microdilution; for MIC / MBC: triplicate, mode; for MBC: subculture on CA-MH agar, 37 °C, 24 h. Here is the method:
as §1, §2

Another data set relates to S. aureus ATCC 25923. Described as above. Format: cell-based, Staphylococcus aureus. To be noted: for MIC: broth microdilution; for MIC / MBC: triplicate, mode; for MBC: subculture on CA-MH agar, 37 °C, 24 h. Further details: key to Act (antibacterial activity): Bc, bactericidal; Bs, bacteriostatic. As to the method: as §1, §2
Data set [1] concerns erythrocytes. Further details: method as in earlier work. As to conditions: at a concentration of 512 µg/mL; ref 17 (Santos-Filho et al., 2021); cited from earlier work.
In a further data set the test system is E. faecalis ATCC 29212. Briefly: MIC/MBC, broth microdilution and subculture on CA-MH agar. Format: cell-based. Further details: key to Act (antibacterial activity): Bc, bactericidal; Bs, bacteriostatic. To be noted: for MIC: broth microdilution; for MIC / MBC: triplicate, mode; for MBC: subculture on CA-MH agar, 37 °C, 24 h. Here is the method:
as §1, §2

The subject of a further data set is E. coli ATCC 25922. The data set is described as above. The data set is classed as cell-based. Further details: key to Act (antibacterial activity): Bc, bactericidal; Bs, bacteriostatic. As to conditions: for MIC: broth microdilution; for MIC / MBC: triplicate, mode; for MBC: subculture on CA-MH agar, 37 °C, 24 h. As to the method: as §1, §2
The test system of data set [2] is S. epidermidis ATCC 35984. The data set is described as above. Format: cell-based. Also on record: key to Act (antibacterial activity): Bc, bactericidal; Bs, bacteriostatic. As to conditions: for MIC: broth microdilution; for MIC / MBC: triplicate, mode; for MBC: subculture on CA-MH agar, 37 °C, 24 h. Here is the method: as §1, §2
The nature of data set [3]: Carboxyfluorescein leakage, vesicle permeabilization. To be noted: 80% POPE / 20% POPG vesicles; peptide 50 µM. Here is the method:
The permeabilization of lipid vesicles containing carboxyfluorescein was carried out using a spectrofluorometer model Fluorolog-3 FL3-122 from Horiba Jobin Yvon (Newark, NJ, USA) (dimers and tetramers) or in a spectrofluorometer model RF-1501 Shimadzu (Kyoto, Japan) (monomer). For RF-1501, the quantification of the fluorescence intensity was performed every 20 s. Two vesicle compositions were used: (1) 80% 1-palmitoyl-2-oleoyl-sn-glycero-3-phosphoethanolamine (POPE) and 20% 1-palmitoyl-2-oleoyl-sn-glycero- 3-phospho-(10-rac-glycerol) (POPG); and (2) 95% 1-palmitoyl-2-oleoyl-sn-glycero-3-phosphocholine (POPC) and 5% POPG. The percentage of leakage was obtained through the following equation:% release = (Fmeasured − Finitial)/(Ffinal − Finitial) × 100, where Ffinal is the average fluorescence value obtained after the addition of Triton, Finitial is the average of the initial values of the run before the addition of the peptide, and Fmeasured are the fluorescence values obtained at each point of the experiment.
Here, we evaluated two systems of membrane mimetics, including vesicles with a composition of 80% POPE and 20% POPG, and another with 95% POPC and 5% POPG. The first is widely used as a model of bacterial membranes, specifically of E. coli membrane. Membranes constituting POPC and POPG were used to mimic mammalian membranes due to the presence of choline-containing lipids in animal membranes.

The next data set relates to SARS-CoV-2. As to conditions: Vero cells; cited from earlier work. The text has this:
In December 2019, the first case of viral infection with a new coronavirus was reported in China, which was later named severe acute respiratory syndrome coronavirus 2 (SARS-CoV-2), and the disease caused by this was named coronavirus-2019 or COVID-19 by the WHO. This disease has taken on great proportions, causing a pandemic scenario and great global concern. Even with the improvements in disease control, there is still a need for new, specific antiviral therapeutic options. As antimicrobial peptides also have antiviral action, the L-dimer, D-dimer and L-tetramer, in addition to ...

In data set [4] the test system is K. pneumoniae ATCC 700603. Briefly: MIC/MBC, broth microdilution and subculture on CA-MH agar. Format: cell-based, Klebsiella pneumoniae. As to conditions: triplicate, mode; for MIC: broth microdilution. As to the method:
as §1, §2

For the next data set, the system named is P. aeruginosa ATCC 27853. The description is as above. The data set is classed as cell-based, Pseudomonas aeruginosa. To be noted: triplicate, mode; for MIC: broth microdilution. As to the method:
as §1, §2

The target of data set [5] is T1, SARS-CoV-2 PL^pro (Severe acute respiratory syndrome coronavirus 2, UniProt P0DTD1).
T1 construct: made in house
To be noted: PL^pro from SARS-CoV-2, ref 19 (Freire et al., 2021), cited from earlier work. Here is the method:
Table 3 PL^pro activity by peptide analogs of p-BThTX-I at the concentration of 10 μM and IC50 values. Representative concentration–response inhibition curves against PL^pro from SARS-CoV-2 are presented in the Supplementary Material (Figure S7). | column: Inhibition (%) at 10 µM; IC50 μM

The target of data set [6] is T1, SARS-CoV-2 PL^pro. Briefly: PL^pro enzymatic inhibition assay. The data set is classed as biochemical. To be noted: PL^pro from SARS-CoV-2.
Data set [7] has as its system erythrocytes. Briefly: Hemolysis assay. As to conditions: at 512 µg/mL, 1 h, 37 °C, Triton X-100 1% positive control, duplicate. Format: cell-based. Here is the method: Peptide hemolytic activity was determined as previously described^15. Peptides were incubated with erythrocytes in the range from 512 μg/mL to 0.06 μg/mL for 1 h at 37 °C. Triton X-100 1% was used as a positive control for hemolysis. Assays were performed in duplicate. The Research Ethics Committee approved this project under the number 90291518.4.0000.5426.

Setting [8] is: MBC/MIC ratio >4 suggests bacteriostatic.
Setting [9] is: subculture on CA-MH agar, 37 °C, 24 h.

In brackets after ≈: the same amount, converted by molar mass. Several values for one entry are separate records, joined by “and”; a condition that tells them apart may be missing. Identical values can stand only once. Like-named read-outs stand apart in the source and are kept apart here. Bridge positions count the residues as written; N and C are the ends. Square brackets hold non-standard residues; d marks the D form. Ends that are not written are not given here. Peptide text beside a SMILES is read from it. I, II: the chains in the order shown.

Turning to `CC(C)C[C@H](NC(=O)[C@H](Cc1c[nH]cn1)NC(=O)[C@H](Cc1ccc(O)cc1)NC(=O)[C@H](CCCNC(=N)N)NC(=O)[C@H](Cc1ccc(O)cc1)NC(=O)[C@H](CCCCN)NC(=O)[C@@H](N)CCCCN)C(=O)N[C@@H](CCCCN)C(=O)N1CCC[C@H]1C(=O)N[C@@H](Cc1ccccc1)C(=O)NCCCC[C@H](NC(=O)[C@H](Cc1ccccc1)NC(=O)[C@@H]1CCCN1C(=O)[C@H](CCCCN)NC(=O)[C@H](CC(C)C)NC(=O)[C@H](Cc1c[nH]cn1)NC(=O)[C@H](Cc1ccc(O)cc1)NC(=O)[C@H](CCCNC(=N)N)NC(=O)[C@H](Cc1ccc(O)cc1)NC(=O)[C@H](CCCCN)NC(=O)[C@@H](N)CCCCN)C(N)=O` [L-dimer, [des-Cys^11,Lys^12,Lys^13-(p-BthTX-I)2K]] (I: H-KKYRYHLKPFK-NH2 / II: H-KKYRYHLKPF; amide I:11-II:C; N-terminus assumed), the MIC is 89 µM and 256 μg/mL in the data set on A. baumannii ATCC 19606; 16 μg/mL and 5 µM against E. faecium ATCC 700221; 32 μg/mL and 11 µM against S. aureus ATCC 25923; 22 µM and 64 μg/mL with E. faecalis ATCC 29212; 32 μg/mL and 11 µM in the data set with E. coli ATCC 25922; 8 μg/mL and 2 µM in data set [2]. The MIC in data set [4] is >128 μg/mL and >44 µM; with P. aeruginosa ATCC 27853, >512 μg/mL and >178 µM. The MBC in the data set on A. baumannii ATCC 19606 is >512 µg/mL; in the data set with E. faecium ATCC 700221 it was >64 µg/mL; against S. aureus ATCC 25923 it was 128 µg/mL (≈ 44.6 µM); in the data set on E. faecalis ATCC 29212, 128 µg/mL (≈ 44.6 µM); against E. coli ATCC 25922 it was 64 µg/mL (≈ 22.3 µM); in data set [2], 16 µg/mL (≈ 5.58 µM). The “Act (antibacterial activity)” value was “Bs” with E. faecium ATCC 700221 (setting [8]); “Bc” in the data set on S. aureus ATCC 25923 (setting [8]); “Bc” in the data set on E. faecalis ATCC 29212 (setting [8]); “Bc” in the data set with E. coli ATCC 25922 (setting [8]); “Bc” in data set [2] (setting [8]). The hemolysis rate result with erythrocytes [1] was “below 5%”. Moreover, in [3], the “carboxyfluorescein leakage, maximum percentage” value is on record as 15%. The “percentage inhibition of SARS-CoV-2 infection” value with SARS-CoV-2 is listed as 27%. On SARS-CoV-2 PL^pro [5] (peptide 10 µM), the “Inhibition (%) at 10 µM” value was 98.05 ± 1.62%. For the same molecule, at SARS-CoV-2 PL^pro [5], the IC50 is 2.4 ± 0.1 µM.

On to “I: [dK][dK][dY][dR][dY][dH][dL][dK][dP][dF]KK-NH2 / II: [dK][dK][dY][dR][dY][dH][dL][dK][dP][dF]K / III: [dK][dK][dY][dR][dY][dH][dL][dK][dP][dF] / IV: [dK][dK][dY][dR][dY][dH][dL][dK][dP][dF] (amide I:11-IV:C, I:12-II:C, II:11-III:C) [D-tetramer]”, for which the MIC in the data set with A. baumannii ATCC 19606 worked out at 5 µM; with E. faecium ATCC 700221 it was 2 µM; in the data set with S. aureus ATCC 25923, 10 µM; against E. faecalis ATCC 29212 it was 5 µM; with E. coli ATCC 25922, 5 µM; in data set [2], 2 µM. Moreover, the MIC (in data set [4]; against P. aeruginosa ATCC 27853) was 5 µM in each case. Besides, the MBC was 32 µg/mL in the data set on A. baumannii ATCC 19606; 16 µg/mL with E. faecium ATCC 700221; 64 µg/mL against S. aureus ATCC 25923; 32 µg/mL in the data set with E. faecalis ATCC 29212; >128 µg/mL in the data set with E. coli ATCC 25922; 16 µg/mL in [2]. The MBC in data set [4] (setting [9]) is 32 µg/mL; with P. aeruginosa ATCC 27853 (setting [9]), 64 µg/mL. Further, the inhibition at 10 µM on SARS-CoV-2 PL^pro [6] (peptide 10 µM) worked out at 94 ± 3%. At SARS-CoV-2 PL^pro [6] (two independent experiments), it took 2.7 ± 0.5 µM to reach half-maximal inhibition (IC50). The same molecule came in with a hemolysis in the data set with erythrocytes [7] of 28%.

As a reminder, the MIC is the lowest concentration found to suppress growth. The term IC50 denotes the concentration that inhibits the measured activity by half. One may read the inhibition as the change of the read-out against control, counted positive when it falls.
